This passage reports IC50 results from article PMC9639481, “Discovery of dual tubulin-NEDDylation inhibitors with antiproliferative activity” (Journal of Enzyme Inhibition and Medicinal Chemistry, 2022).

Assay [1] concerns T1, tubulin.
T1 construct: with alpha/beta-tubulin heterodimer
Description: in vitro tubulin polymerisation assay; supported by immunofluorescence of microtubules in HepG2 cells. Type of assay: biochemical.

Assay [2] concerns T1, tubulin. Description: in vitro tubulin polymerisation assay. Type of assay: biochemical.

SMILES strings stand for the structures. Where only a bound is given, the exact number is not on record here.

The term IC50 denotes the point on the concentration scale where inhibition reaches its midpoint. For `COc1ccc(CN(C(=O)CSC(=S)N2CCCCC2)c2cc(OC)c(OC)c(OC)c2)cc1` [C11, 2-((4-Methoxybenzyl)(3,4,5-trimethoxyphenyl)amino)-2-oxoethylpiperidine-1-carbodithioate], the IC50 with tubulin [1] came out at 2400 nM.

`COc1ccc(CN(C(=O)CSC(=S)N2CC(C)CC(C)C2)c2cc(OC)c(OC)c(OC)c2)cc1` (centres unmarked) [C14, 2-((4-Methoxybenzyl)(3,4,5-trimethoxyphenyl)amino)-2-oxoethyl-3,5-dimethylpiperidine-1-carbodithioate] returned an IC50 in the assay with tubulin [2] of more than 4000 nM.
